Test [1] deals with T1, human CRTH2 (Homo sapiens, UniProt Q9Y5Y4).
T1 construct: expressed in transfected cells
T1 sequence (Q9Y5Y4 1-395): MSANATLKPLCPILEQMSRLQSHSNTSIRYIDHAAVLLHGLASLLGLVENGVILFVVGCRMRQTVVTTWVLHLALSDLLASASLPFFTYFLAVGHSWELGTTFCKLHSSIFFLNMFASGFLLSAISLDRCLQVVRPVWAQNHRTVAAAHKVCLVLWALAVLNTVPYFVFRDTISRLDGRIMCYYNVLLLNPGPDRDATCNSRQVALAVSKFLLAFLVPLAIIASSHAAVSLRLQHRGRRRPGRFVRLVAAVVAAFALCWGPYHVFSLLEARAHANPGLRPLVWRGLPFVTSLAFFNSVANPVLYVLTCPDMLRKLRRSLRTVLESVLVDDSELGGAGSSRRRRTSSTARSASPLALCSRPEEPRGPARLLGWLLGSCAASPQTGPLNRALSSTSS
As to the kind of experiment: Human CRTH2 Receptor Binding Assay (whole cell, [3H]ramatroban competition). The following applies: CHO-K1 cells expressing human CRTH2 and G-alpha16; 20 nM [3H]ramatroban; 1 hour, room temperature. The gist of the method: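 CHO-K1 cells stably expressing human CRTH2 and G-alpha16 (1.5×10^5 cells) incubated 1 h at room temperature with 20 nM [3H]ramatroban in PBS, 10 mM MgCl2, 0.06% BSA, then filtered and counted. Non-specific binding defined with 10 μM 15(R)-15-methyl PGD2; IC50 from 7-concentration 4-parameter logistic fit of specific-binding inhibition.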

Test [2] has as its system DK-PGD2-induced IL-13 production in T helper type 2 (Th2) cells. As to the kind of experiment: DK-PGD2-Induced IL-13 Production Assay in Th2 Cells. Type of test: cell-based. The following applies: human Th2 cells, 500 nM DK-PGD2, 4 hrs at 37° C., ELISA; unit inferred; read-out: IC50 of inhibiting IL-13 production (values greater than 10). As for the experimental part: Inhibition of 13,14-dihydro-15-keto Prostaglandin D2 (DK-PGD2)-induced IL-13 production in T helper type 2 (Th2) cells was applied to evaluate compound cellular potency.
Cultures of Th2 cells were established from blood of healthy human volunteers according to the following procedure. Peripheral blood mononuclear cells (PBMC) were first isolated from 50 mL of fresh blood by Ficoll-Hypaque density gradient centrifugation, followed by CD4^+ cell purification using a CD4^+ T Cell Isolation Kit II (from Miltenyi Biotec Inc.). The CD4^+ T cells were then differentiated to Th2 cells by culturing the cells in X-VIVO 15® medium (from Cambrex BioScience Walkersville Inc.) containing 10% human AB serum (serum of blood type AB from Invitrogen Corporation), 50 U/mL of recombinant human interleukin-2 (rhIL-2) (from PeproTech Inc.) and 100 ng/mL of recombinant human interleukin-4 (rhIL-4) (from PeproTech Inc.) for 7 days. The Th2 cells were isolated using a CD294 (CRTH2) MicroBead Kit (from Miltenyi Biotec Inc.) and amplified in X-VIVO 15® medium containing 10% human AB serum and 50 U/mL of rhIL-2 for 2 to 5 weeks. In general, 70% to 80% of the Th2 cells used in the assay are CRTH2-positive when analyzed by fluorescence-activated cell sorting using the BM16 antibody (as previously described) conjugated to phycoerythrin (PE).
The spontaneous production of IL-13 by Th2 cells was determined in the absence of DK-PGD2 stimulation and the value was subtracted from that in the presence of each compound for percent inhibition and IC50 calculations.
The percent inhibition of interleukin 13 (IL-13) production for a compound at various concentrations was calculated according to the following formula, [1-(IL-13 production in the presence of compound)/(IL-13 production in the presence of 0.15% DMSO)]×100. The IC50 value, defined as the concentration of a compound that is required for 50% inhibition of IL-13 production, was calculated by fitting the percent inhibition data for 7 concentrations to a sigmoidal dose-response (4 parameter logistic) model in the XLfit® software Excel add-in program [ID Business Solutions Ltd., model 205, where F(x)=(A+(B−A)/(1+((C/x)^D)))].

Bounds are passed on as bounds.

Usually IC50 stands for the concentration at which inhibition is half-maximal. On to `CCc1ccc2c(c1OCC(=O)O)CCCC2N(C)S(=O)(=O)c1cc(C(F)(F)F)cc(C(F)(F)F)c1` (centres unmarked) [Example 2-3, {5-[(3,5-Bis-trifluoromethyl-benzenesulfonyl)-methyl-amino]-2-ethyl-5,6,7,8-tetrahydro-naphthalen-1-yloxy}-acetic acid], for which the IC50 in test [1] was 177 nM; in test [2], above 10000 nM.

Consider `CN(C1CCCc2c(OCC(=O)O)cc(F)cc21)S(=O)(=O)c1ccc(Cl)cc1Cl` (centres unmarked) [Example 2-16], for which the IC50 in test [1] was 981 nM; in test [2], above 10000 nM.

On to `Cc1ccc2c(c1OCC(=O)O)CCCC2N(C)S(=O)(=O)c1cc(C(F)(F)F)cc(C(F)(F)F)c1` (centres unmarked) [Example 2-2, {5-[(3,5-Bis-trifluoromethyl-benzenesulfonyl)-methyl-amino]-2-methyl-5,6,7,8-tetrahydro-naphthalen-1-yloxy}-acetic acid], for which the IC50 is 311 nM in test [1] and above 10000 nM in test [2].

`CN(C1CCCc2c1cc(Cl)c(F)c2OCC(=O)O)S(=O)(=O)c1ccc(Cl)cc1Cl` (centres unmarked) [Example 2-11, {3-Chloro-5-[(2,4-dichloro-benzenesulfonyl)-methyl-amino]-2-fluoro-5,6,7,8-tetrahydro-naphthalen-1-yloxy}-acetic acid]: the results for the IC50 in test [1] and in test [2] were 536 nM and above 10000 nM, respectively.

Source of the values: US8263656B2 (Hoffmann-La Roche Inc., priority 2008, dated 2012).
